Numbered stars: 1 amine (or outer) side, 2 acyl side, 3 side chain; on linkers, the order of the positions; unused ones are H or OH. Bridge positions count the residues as written; N and C are the ends. Square brackets hold non-standard residues; d marks the D form. Peptide text beside a SMILES is read from it. ξ: configuration not given here. X1 = O=C(C(CO)NN[*:1])[*:2]; ξY = NC(Cc1ccc(O)cc1)C(=O)O; ξQ = NC(=O)CCC(N)C(=O)O; ξN = NC(=O)CC(N)C(=O)O

T1 sequence (Q15116 whole entry): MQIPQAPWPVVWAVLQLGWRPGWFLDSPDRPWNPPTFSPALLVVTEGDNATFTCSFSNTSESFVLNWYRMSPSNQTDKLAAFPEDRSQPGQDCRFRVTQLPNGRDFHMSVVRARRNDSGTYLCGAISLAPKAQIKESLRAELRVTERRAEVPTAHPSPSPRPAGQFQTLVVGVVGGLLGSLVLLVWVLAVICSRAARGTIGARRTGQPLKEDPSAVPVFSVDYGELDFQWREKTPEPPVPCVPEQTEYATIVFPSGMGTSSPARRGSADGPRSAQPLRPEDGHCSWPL
T1 sequence (Q9NZQ7 whole entry): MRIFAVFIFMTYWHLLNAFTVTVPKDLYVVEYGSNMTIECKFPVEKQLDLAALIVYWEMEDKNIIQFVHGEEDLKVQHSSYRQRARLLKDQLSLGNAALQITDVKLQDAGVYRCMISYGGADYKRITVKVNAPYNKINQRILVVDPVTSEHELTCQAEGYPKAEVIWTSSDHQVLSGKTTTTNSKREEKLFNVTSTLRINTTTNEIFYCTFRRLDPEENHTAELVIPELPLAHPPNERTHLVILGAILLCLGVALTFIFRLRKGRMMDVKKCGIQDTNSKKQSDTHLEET

One assay has as its target T1, Programmed cell death protein 1/Programmed cell death 1 ligand 1 (Homo sapiens, UniProt Q15116+Q9NZQ7). Kind of assay: Inhibition of recombinant human PD-1/PD-L1 interaction relative to control. In kind it is protein-complex assay. Particulars: concentration not given here.
Take `CCCCN(CCCC)CCOc1cccc(OC(=O)N(C)C)c1`: the inhibition (commonly the relative decrease from the control value, in per cent) was 41.9%.
As for `CNCCOc1cccc(OC(=O)N(C)C)c1`, the inhibition came to 18.5%.
For the compound `COc1cc(NS(=O)(=O)c2ccc(N)cc2)ncn1`, the inhibition is 10.2%.
Same read-out and setting: the value for `Cc1nnc(NS(=O)(=O)c2ccc(N)cc2)s1` was 29.3%.

Test system in another assay: not listed separately
Kind of assay: Inhibition of VISTA/PD-1 interaction in human PBMCs assessed as increase in INFgamma production. The format is cell-based. Particulars: PBMC.
For the compound `CC(O)[C@H](NC(=O)N[C@@H](CC(N)=O)c1nnc([C@@H](N)CO)s1)C(=O)O` (stereo partly specified), the EC50 (commonly the concentration needed to bring the measured effect to its halfway point) came to 49.4 nM.

In the next assay the target is Programmed cell death 1 ligand 1 (Mus musculus, UniProt Q9EP73). Kind of assay: Inhibition of PD-L1 in mouse splenocytes assessed as increase in INFgamma release. In kind it is cell-based, Splenocyte.
Programmed cell death 1 ligand 1 (Mus musculus, UniProt Q9EP73), sequence (Q9EP73 whole entry): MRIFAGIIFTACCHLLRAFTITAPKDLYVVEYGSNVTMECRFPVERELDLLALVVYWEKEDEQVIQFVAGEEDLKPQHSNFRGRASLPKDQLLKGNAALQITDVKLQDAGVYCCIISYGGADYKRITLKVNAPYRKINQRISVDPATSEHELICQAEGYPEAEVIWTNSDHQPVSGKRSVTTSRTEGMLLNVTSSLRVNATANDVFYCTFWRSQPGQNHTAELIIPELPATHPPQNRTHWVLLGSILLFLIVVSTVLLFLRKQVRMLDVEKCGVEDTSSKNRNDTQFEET
Settings: not given
For `C[C@@H](O)[C@H](N)C(=O)NNC(=O)[C@H](CC(N)=O)NC(=O)N[C@@H](CO)C(=O)O`, the EC50 amounted to 27 nM.
On to `C[C@H](O)[C@H](NC(=O)N[C@@H](CC(N)=O)C(=O)NNC(=O)[C@@H](N)CO)C(=O)O`, for which the EC50 amounted to 30 nM.
For `C[C@H](O)[C@@H](N)C(=O)NNC(=O)[C@@H](CC(N)=O)NC(=O)N[C@H](CO)C(=O)O`, the EC50 came out at 40 nM.
`CC(O)[C@H](NC(=O)N[C@@H](CC(N)=O)c1nnc([C@@H](N)CO)s1)C(=O)O` (stereo partly specified): the EC50 amounted to 33.8 nM.

The next assay addresses T2, Programmed cell death 1 ligand 2 (Homo sapiens, UniProt Q9BQ51).
T2 sequence (Q9BQ51 whole entry): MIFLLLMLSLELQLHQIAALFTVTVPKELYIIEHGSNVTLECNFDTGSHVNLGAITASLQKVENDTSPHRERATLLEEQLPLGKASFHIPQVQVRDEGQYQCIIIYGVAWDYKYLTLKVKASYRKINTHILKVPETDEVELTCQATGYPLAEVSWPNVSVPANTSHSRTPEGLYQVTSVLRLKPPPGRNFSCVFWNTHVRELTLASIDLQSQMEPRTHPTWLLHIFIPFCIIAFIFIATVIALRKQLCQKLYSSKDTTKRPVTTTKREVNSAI
Kind of assay: Inhibition of PD-L2 in human PBMCs assessed as increase in INFgamma production. The format is cell-based, PBMC.
Settings: not given
Regarding `CC(O)[C@H](NC(=O)N[C@@H](CC(N)=O)c1nnc([C@@H](N)CO)s1)C(=O)O` (stereo partly specified), the EC50 is 149 nM.

In the next assay the target is Programmed cell death 1 ligand 1 (Homo sapiens, UniProt Q9NZQ7). Kind of assay: Inhibition of PD-L1 in human PBMCs assessed as increase in INFgamma production. The format is cell-based, PBMC.
Programmed cell death 1 ligand 1 (Homo sapiens, UniProt Q9NZQ7), sequence (Q9NZQ7 whole entry): as the sequence (Q9NZQ7 whole entry) above
Settings: not given
Take `CC(O)[C@H](NC(=O)N[C@@H](CC(N)=O)c1nnc([C@@H](N)CO)s1)C(=O)O` (stereo partly specified): the EC50 worked out at 56.4 nM.

Biological target in a further assay: not listed separately
Kind of assay: Binding affinity to human PD-1.
Settings: not given
With H-FNWDYSLEELREKAKYK-OH, the Kd (in general, the constant that tells how readily two partners part at equilibrium) was determined as 3140 nM.
H-LDYVNRRKMYQ-OH had a Kd of 3320 nM.
Compound `CC[C@H](C)[C@H](NC(=O)[C@H](CC(N)=O)NC(=O)CNC(=O)[C@H](Cc1cnc[nH]1)NC(=O)[C@H](CCCNC(=N)N)NC(=O)C(Cc1ccc(O)cc1)NC(=O)[C@H](CC(=O)O)NC(=O)[C@H](CCCCN)NC(=O)[C@H](CCC(=O)O)NC(=O)[C@@H](N)[C@@H](C)O)C(=O)N[C@@H](CCCNC(=N)N)C(=O)N[C@@H](CCSC)C(=O)N[C@@H](CCCCN)C(=O)N[C@@H](CC(C)C)C(=O)N[C@@H](C)C(=O)N[C@@H](Cc1ccc(O)cc1)C(=O)N[C@@H](CC(=O)O)C(=O)N[C@@H](CC(C)C)C(=O)O` (stereo partly specified) (H-TEKD[ξY]RHGNIRMKLAYDL-OH) displayed a Kd of 3130 nM.
Still for that read-out and setting: the value for `N[C@@H](Cc1c[nH]c2ccccc12)C(=O)N[C@@H](CC(=O)O)C(=O)N[C@@H](Cc1ccc(O)cc1)C(=O)N[C@@H](CC(=O)O)C(=O)O` (H-WDYD-OH) was 22400 nM; that for H-FNWDYSWKSERLKEAYDL-OH was 339000 nM; that for H-GIDYEERWK-OH was 28300 nM.
Same read-out and setting: the same measure for `CC(C)C[C@H](NC(=O)[C@H](CCC(N)=O)NC(=O)[C@H](C)NC(=O)[C@H](CCCNC(=N)N)NC(=O)[C@H](CCC(N)=O)NC(=O)[C@H](CO)NC(=O)[C@H](CC(N)=O)NC(=O)[C@H](Cc1ccc(O)cc1)NC(=O)[C@H](CC(=O)O)NC(=O)[C@H](Cc1c[nH]c2ccccc12)NC(=O)C(CC(N)=O)NC(=O)CN)C(=O)N[C@@H](Cc1ccc(O)cc1)C(=O)N[C@@H](CC(N)=O)C(=O)N[C@@H](CCC(N)=O)C(=O)O` (stereo partly specified) (H-G[ξN]WDYNSQRAQLYNQ-OH): 1380 nM.
The compound H-LDYGDKREGQMAE-OH gave a Kd of 21600 nM.

For a further assay, the target named is T1, Programmed cell death protein 1/Programmed cell death 1 ligand 1. Kind of assay: Inhibition of PD-1/PD-L1 interaction in human MDA-MB-231 cells assessed as increase in mouse splenocytes proliferation. In kind it is cell-based. Set-up: concentration or dose not given beside the values.
Settings: not given
`C[C@@H](O)[C@@H]1NC(=O)C(N[C@@H](CO)C(=O)O)CCCCNC(=O)CCC(C(=O)N[C@@H](CO)C(=O)N[C@@H](Cc2ccccc2)C(N)=O)NC(=O)[C@H](CO)NC1=O` (stereo partly specified): the Activity came to 84%.
The same measure, in the same setting: the same measure for `C[C@@H](O)[C@H](NC(=O)[C@H](CO)NC(CCC(=O)NCCCCNC(=O)C(Cc1ccccc1)NC(=O)C(N)CO)C(N)=O)C(=O)N[C@@H](CC(N)=O)C(=O)N[C@@H](CO)C(=O)O` (stereo partly specified): 87%.
For the compound `C[C@@H](O)[C@@H]1NC(=O)C(N[C@@H](CO)C(=O)O)CCC(=O)NCCCCC(C(=O)N[C@@H](CO)C(=O)N[C@@H](Cc2ccccc2)C(N)=O)NC(=O)[C@H](CO)NC1=O` (stereo partly specified), the Activity is 78%.
The same measure, in the same setting: the value for `CC[C@H](C)[C@H](NC1CCC(=O)NCCCCC(C(=O)N[C@@H](CO)C(=O)N[C@@H](Cc2ccccc2)C(N)=O)NC(=O)[C@H](CO)NC(=O)[C@H]([C@@H](C)O)NC1=O)C(=O)O` (stereo partly specified) was 76%; that for `C[C@@H](O)[C@@H]1NC(=O)[C@H](CC(N)=O)NC(=O)C(CO)NNC(=O)C(CCC(N)=O)NC(=O)[C@H](Cc2ccccc2)NC(=O)[C@H](CO)NC(=O)[C@H](CCC(=O)O)NC(=O)[C@H](CO)NC1=O` (stereo partly specified) (cyclo(ESF[ξQ][X1]NTS)) was 76%.
On to `CC[C@H](C)[C@H](NC1CCC(=O)NCCCCC(C(=O)N[C@@H](CO)C(=O)NC(CCC(N)=O)C(=O)O)NC(=O)[C@H](CO)NC(=O)[C@H](CCSC)NC1=O)C(=O)O` (stereo partly specified), for which the Activity worked out at 76%.

Another assay deals with CT26. Description: Antitumor activity against mouse CT26 cells implanted in mouse at 3 mg/kg administered for 25 days. In kind it is functional. The settings on record: time 25 day.
For `C[C@H](O)[C@H](NC(=O)N[C@@H](CC(N)=O)C(=O)NNC(=O)[C@@H](N)CO)C(=O)O`, the Activity amounted to 46%.

A further assay concerns the target T1, Programmed cell death protein 1/Programmed cell death 1 ligand 1. Description: Inhibition of human PD-1/PD-L1 interaction. The format is protein-complex assay.
Settings: not given
In the case of `Cc1c(-c2ccc3c(c2)OCCO3)cccc1-c1nc2cc(CNCCO)c(OCC#N)cc2o1`, the IC50 (in general, the point on the concentration scale where inhibition reaches its midpoint) was < 10 nM.
Turning to `Cc1c(-c2nc3cc(CN4CC[C@@](C)(C(=O)O)C4)cc(C#N)c3o2)cccc1-c1cccc(-c2nc3c(s2)CN(C(=O)CN(C)C(C)C)C3)c1C`, the IC50 was < 10 nM.
`Cc1c(Nc2nccc3cc(CN4CC[C@@H](O)C4)cnc23)cccc1-c1cccc(-c2nc3cc(CN[C@H]4CC[C@@H](C(=O)O)C4)cc(C#N)c3o2)c1C`: the IC50 is < 10 nM.
For the compound `CC[C@H](C)[C@@H]1NC(=O)[C@H](CC(C)C)NC(=O)[C@H](Cc2ccccc2)NC(=O)CSC[C@@H](C(=O)NCC(N)=O)NC(=O)[C@H](CCCNC(=N)N)NC(=O)[C@H](Cc2ccccc2)NC(=O)[C@H](C(C)C)NC(=O)[C@H](CCCNC(=N)N)NC(=O)[C@H](CC(=O)O)NC(=O)[C@H](CCCNC(=N)N)NC(=O)[C@H]([C@@H](C)CC)NC(=O)[C@H](C(C)C)NC1=O` ({CH2CO}-FLIVIRDRVFRCG-NH2; thioether N-12), the EC50 came to 0.72 nM.
On to `Cc1c(Nc2nccc3cc(CN[C@H](C)CO)cnc23)cccc1-c1cccc(-c2nc3cc(CN4CCC(C(=O)O)CC4)cc(C#N)c3o2)c1C`, for which the IC50 is < 10 nM.
As to `Cc1c(-c2ccccc2)cccc1-c1nc2cc(CNCCO)ccc2o1`, the IC50 is < 10 nM.
The same measure, in the same setting: the same measure for `Cc1c(-c2ccccc2)cccc1-c1nc2cc(CNCCO)c(OCCN3CCOCC3)cc2o1`: < 10 nM; for `Cc1c(-c2nc3c(o2)CN(C(=O)CN2CCC(O)CC2)C3)cccc1-c1cccc(-c2nc3cc(CN4CC[C@@](C)(C(=O)O)C4)cc(C#N)c3o2)c1C`: < 10 nM.
`Cc1c(-c2ccc3c(c2)OCCO3)cccc1-c1nc2cc(CNCCO)cc(C)c2o1`: the IC50 was < 10 nM.

Test system in the next assay: not listed separately
Kind of assay: Induction of mouse splenocytes proliferation at 100 nM.
Settings: not given
In kind it is functional, Splenocyte.
As for `CCN(Cc1ccccc1)C(=O)N[C@@H](CC(N)=O)c1nc([C@@H](N)CO)no1`, the Activity came to 92%.
On to `CC(O)[C@H](NC(=O)N[C@@H](CCC(N)=O)c1nnc([C@@H](N)C(C)O)o1)C(=O)O` (stereo partly specified), for which the Activity stood at 97%.
The same measure, in the same setting: the same measure for `N[C@@H](Cc1ccc(O)cc1)c1noc([C@@H]2CCCN2C(=O)N[C@@H](Cc2ccc(O)cc2)C(=O)O)n1`: 91%.
The same measure, in the same setting: the same measure for `C[C@H](O)[C@H](NC(=O)N[C@@H](Cc1ccccc1)c1nc([C@@H](N)CO)no1)C(=O)O`: 92%; for `C[C@@H](O)[C@H](N)c1noc([C@H](Cc2ccc(O)cc2)NC(=O)N2CCC[C@H]2C(=O)O)n1`: 99%.

Another assay concerns the target T3, Programmed cell death 1 ligand 2 (Mus musculus, UniProt Q9WUL5).
T3 sequence (Q9WUL5 whole entry): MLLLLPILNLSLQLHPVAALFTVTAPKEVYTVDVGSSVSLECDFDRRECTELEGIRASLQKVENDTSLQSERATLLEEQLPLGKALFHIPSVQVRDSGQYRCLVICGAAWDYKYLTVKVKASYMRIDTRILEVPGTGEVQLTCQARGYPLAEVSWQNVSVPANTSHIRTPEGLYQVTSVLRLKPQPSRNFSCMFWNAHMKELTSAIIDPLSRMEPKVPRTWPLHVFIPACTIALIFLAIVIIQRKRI
Description: Inhibition of PD-L2 in mouse splenocytes assessed as increase in INFgamma production. In kind it is cell-based, Splenocyte.
Settings: not given
For `CC(O)[C@H](NC(=O)N[C@@H](CC(N)=O)c1nnc([C@@H](N)CO)s1)C(=O)O` (stereo partly specified), the EC50 amounted to 55 nM.

The values above are taken from ChEMBL document CHEMBL5233211, “Progress in PD-1/PD-L1 pathway inhibitors: From biomacromolecules to small molecules” (Eur J Med Chem, 2020).
